Data published in US9006221B2, “Method of modulating ship activity” (H. Lee Moffitt Cancer Center and Reserach Institute, Inc., priority 2008, dated 2015).

Biological target: T1, SHIP1 (Mus musculus, UniProt Q9ES52)
T1 construct: The asterisk in lanes 1 and 3 indicates the ˜145 kD full-length SHIP protein; His tag (C); made in house; host or cells: E. coli Rosetta-Gami 2 (DE3) pLys
T1 sequence (Q9ES52 1-1191): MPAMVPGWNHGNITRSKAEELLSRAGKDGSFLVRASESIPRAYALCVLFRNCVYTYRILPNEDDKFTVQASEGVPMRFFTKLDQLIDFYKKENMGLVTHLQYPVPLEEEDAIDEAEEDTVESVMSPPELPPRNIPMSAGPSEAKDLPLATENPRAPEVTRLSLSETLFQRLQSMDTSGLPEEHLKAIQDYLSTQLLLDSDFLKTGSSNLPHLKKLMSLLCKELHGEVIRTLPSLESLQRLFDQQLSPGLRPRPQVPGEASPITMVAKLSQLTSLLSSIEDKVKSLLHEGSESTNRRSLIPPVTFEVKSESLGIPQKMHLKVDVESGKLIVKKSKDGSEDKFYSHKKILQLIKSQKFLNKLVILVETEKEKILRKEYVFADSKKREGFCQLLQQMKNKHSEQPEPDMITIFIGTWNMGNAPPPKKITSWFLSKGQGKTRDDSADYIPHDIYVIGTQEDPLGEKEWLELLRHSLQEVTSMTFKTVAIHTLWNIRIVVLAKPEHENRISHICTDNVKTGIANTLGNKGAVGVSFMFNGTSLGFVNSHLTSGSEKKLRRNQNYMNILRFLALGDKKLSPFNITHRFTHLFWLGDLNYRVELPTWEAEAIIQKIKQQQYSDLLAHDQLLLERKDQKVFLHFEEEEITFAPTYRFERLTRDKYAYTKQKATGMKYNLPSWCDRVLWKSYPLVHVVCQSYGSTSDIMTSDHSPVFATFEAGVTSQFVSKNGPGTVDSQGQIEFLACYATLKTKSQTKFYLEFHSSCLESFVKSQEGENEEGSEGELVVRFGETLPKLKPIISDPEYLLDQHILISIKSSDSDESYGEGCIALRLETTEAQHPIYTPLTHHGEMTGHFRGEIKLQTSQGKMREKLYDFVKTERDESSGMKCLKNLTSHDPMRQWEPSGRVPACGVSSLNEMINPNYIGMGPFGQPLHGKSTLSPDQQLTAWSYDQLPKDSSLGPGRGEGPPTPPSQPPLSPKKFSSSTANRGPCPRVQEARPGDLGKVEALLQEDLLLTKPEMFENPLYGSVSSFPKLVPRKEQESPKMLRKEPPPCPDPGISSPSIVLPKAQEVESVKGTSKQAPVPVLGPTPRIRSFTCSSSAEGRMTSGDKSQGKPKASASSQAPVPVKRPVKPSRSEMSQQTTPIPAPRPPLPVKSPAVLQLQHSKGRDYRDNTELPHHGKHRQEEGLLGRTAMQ
Test: Fluorescence polarization (FP) assay of SHIP1 enzymatic activity
Type: biochemical
Conditions: for SHIP inhibitory activity in FP assay: confirmatory FP assay of screening hits
From the text: SHIP is detectable in this expression system as a ˜145 kD protein (FIG. 1a, lane 1). Because of an in-frame Histidine (His) tag on the COOH terminus of SHIP, it can then be purified from E. coli lysates by FPLC over a Ni-containing resin. (FIG. 1a, lane 3). Purified SHIP was routinely obtained in sufficient quantities, using this E. coli expression system and FPLC purification, to conduct high-throughput screening (HTS) of chemical libraries for compounds that inhibit SHIP activity. However, prior to screening, a fluorescence polarization (FP) assay that detects SHIP activity in either a 96- or […] format, seen in FIG. 1b, screen was established. SHIP generates PI(3,4)P2 from its PI(3,4,5)P3 substrate. In the FP assay enzymatic generation of PI(3,4)P2 by SHIP reduces polarized fluorescence (mP) because the fluorescent PI(3,4)P2 “probe” is displaced from a detector protein that binds specifically to PI(3,4)P2. The FP assay is highly specific for SHIP activity in these lysates. No significant 5′-inositol phosphatase activity was detected in E. coli lysates harboring an ‘empty’ pet24b expression vector insert when FPLC fractions where SHIP typically elutes with the imidazole step gradient are analyzed in the FP assay (FIG. 1c).
After preparing purified SHIP and establishing the FP assay, two different chemical libraries, comprising a total of ˜2100 different chemical compounds, were screened. Seventeen compounds capable of inhibiting SHIP activity at μM concentrations were identified in this screen. The compounds were verified for SHIP activity inhibition by repeating the FP assay with the compounds obtained from their respective wells in the replicates of the masterplates for these libraries FIGS. 2-6).
A fluorescence polarization (FP) assay to detect and quantify SHIP2 activity has been previously described [Drees B E, et al., Comb Chem High Throughput Screen (2003) 6(4):321-330], but no assay has been described for the detection of SHIP1. A fluorescence polarization (FP) assay was developed to detect the activity of recombinant SHIP1 (see FIGS. 15a and b) and the FP assay was utilized as a rapid screen to detect compounds in chemical libraries that have inhibitory activity against SHIP1. This screen identified 3α-aminocholestane as a potent inhibitor of SHIP1 enzymatic activity (FIG. 15c). […] This high degree of selectivity could be important, since loss of PTEN function promotes malignancy in parenchymal and hematopoietic tissues. [Yuan T L & Cantley L C Oncogene (2008) 27(41):5497-5510; Zhang J, et al., Nature (2006) 441(7092):518-522; Yilmaz O H, et al., Nature (2006) 441(7092):475-482]
Assay of SHIP1 enzymatic activity: A fluorescent polarization (FP) assay that detects the 5′-inositol phosphatase activity of SHIP1 was developed based on a previously established protocol [Drees B E, et al., Comb Chem High Throughput Screen (2003) 6(4):321-330] and was obtained from Echelon Biosciences (Salt Lake City, USA). Modifications of the protocol included the application of SHIP1 in the assay and an increase in the concentration of MgCl2 to […] to maximize the activity of SHIP1 in this assay. Each enzymatic reaction was performed in a 96 well working plate and added in the following order and concentration: Recombinant SHIP1 (0.1 μg) in PBS+20 mM MgCl2, 100 μM of each individual compound from the NCI Diversity Set and then PI(3,4,5)P3 substrate diluted 1:10 in H2O. The enzymatic reaction was incubated for 30 min at room temperature. The detector, reaction mixture and probe were then combined according to the SHIP2 protocol. Malachite Green Phosphatase Assay Kit was obtained from Echelon Biosciences (Salt Lake City, USA). Assays for SHIP2 were performed according to the manufacturer's protocol. The concentration of SHIP1 and SHIP2 per reaction mixture was […]. PTEN was used at the concentration recommended by the manufacturer.

Row | SHIP inhibitory activity in FP assay (listed as NSC 13480) | Compound | concentration with detectable inhibitory activity against SHIP1 (0.1 μg of recombinant SHIP1, FP assay) [µM] | inhibition of SHIP1 activity (at 100 μM in the FP assay) | SHIP inhibitory activity in FP assay | SHIP inhibitory activity in FP assay (listed as NSC 23922)
1 |  | CC(C)CCC[C@@H](C)[C@H]1CC[C@H]2[C@@H]3CC[C@H]4C[C@H](N)CC[C@]4(C)[C@H]3CC[C@]12C [NSC23922, (3R,5S,8R,9S,10S,13R,14S,17R)-10,13-dimethyl-17-[(2R)-6-methylheptan-2-yl]-2,3,4,5,6,7,8,9,11,12,14,15,16,17-tetradecahydro-1H-cyclopenta[a]phenanthren-3-amine] | 2 | inhibits SHIP1 activity | inhibit both SHIP1 and SHIP2 enzymatic activity | SHIP inhibitory activity
2 | SHIP inhibitory activity | OC(c1cc(-c2ccccc2)nc2c1ccc1ccccc12)C1CCCCN1 (stereo not drawn) [NSC13480, (2-phenylbenzo[h]quinolin-4-yl)-piperidin-2-ylmethanol] |  |  | inhibit both SHIP1 and SHIP2 enzymatic activity | 
